From paper PMC12281424, “A Rac-specific competitive inhibitor of guanine nucleotide binding reduces metastasis in triple-negative breast cancer” (Cell Reports Medicine, 2025)

Tests used:
[1] = biological target: NEK3(h) (Homo sapiens, UniProt P51956); assay: Kinase Profiler; format: biochemical
Experimental: (§1) The kinase profiler was performed by the company Eurofins (Discovery, Panlab and Cerep).

[2] = biological target: Met(M1268T)(h) (Homo sapiens, UniProt P08581, M1250T); assay: Kinase Profiler; format: biochemical
Experimental: as §1

[3] = biological target: RHOA (Homo sapiens, UniProt P61586); assay: GEF-stimulated nucleotide exchange; format: biochemical; set-up: Full-length RAC2, RHOG, RHOA and CDC42 were purified as previously described; made in house; p115RhoGEF DH-PH in insect cells (Sf21); conditions: 10^-5 M
Chain of RHOA (P61586 whole entry): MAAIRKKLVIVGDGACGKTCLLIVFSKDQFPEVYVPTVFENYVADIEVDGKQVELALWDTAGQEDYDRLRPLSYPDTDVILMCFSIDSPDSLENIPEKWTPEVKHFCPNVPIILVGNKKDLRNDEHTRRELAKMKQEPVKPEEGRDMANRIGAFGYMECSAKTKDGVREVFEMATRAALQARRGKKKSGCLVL
Text: Figure 4 A41 selectively impairs RAC protein activation (A) Representative surface plasmon resonance (SPR) sensograms of binding of immobilized RHOA or CDC42 with indicated increasing concentrations of A41 (N > 3). (B) Effect of A41 on GEF-stimulated RAC2, RHOG, RHOA, and CDC42 nucleotide exchange. […] Kobs is expressed as mean ± SEM. ∗p < 0.001 vs. control. (C) Effect of A41 on RAC1 G30S activation. […] The GEF TRIO was used to induce nucleotide exchange (N = 3). Data are expressed as mean ± SEM. (D) Immunoblot analysis and associated quantification of RAC-GTP level and total RAC expression in NIH-3T3 fibroblasts expressing RAC wild-type (RAC1 WT) or RAC1 oncomutants (RAC1 P29S and RAC1b) in the absence (Ctrl) and presence of A41 (10 μM). RAC activation was measured as the ratio of RAC-GTP to total RAC and expressed relative to Ctrl condition. Data are presented as mean ± SEM. ∗∗∗p < 0.001 vs. controls.
Full-length RAC1 carrying a 6xHis tag in C-terminus was purified as previously described.[64] […] Specific exchange activity toward RHOA determined by fluorescence kinetics is 0.04 s^−1M^−1.
Nucleotide exchange kinetics were measured by recording the increase in fluorescence following the association of mant-GTP on GDP-bound RHO protein or the decay in fluorescence following the dissociation of mant-GDP pre-loaded onto the RHO protein (λEx = 360 nm, λEm = 440 nm) as previously described.[39] […]

[4] = biological target: Adrenergic α1A (Rattus norvegicus, UniProt P43140); assay: Safety screen; format: binding
Chain of Adrenergic α1A (P43140 whole entry): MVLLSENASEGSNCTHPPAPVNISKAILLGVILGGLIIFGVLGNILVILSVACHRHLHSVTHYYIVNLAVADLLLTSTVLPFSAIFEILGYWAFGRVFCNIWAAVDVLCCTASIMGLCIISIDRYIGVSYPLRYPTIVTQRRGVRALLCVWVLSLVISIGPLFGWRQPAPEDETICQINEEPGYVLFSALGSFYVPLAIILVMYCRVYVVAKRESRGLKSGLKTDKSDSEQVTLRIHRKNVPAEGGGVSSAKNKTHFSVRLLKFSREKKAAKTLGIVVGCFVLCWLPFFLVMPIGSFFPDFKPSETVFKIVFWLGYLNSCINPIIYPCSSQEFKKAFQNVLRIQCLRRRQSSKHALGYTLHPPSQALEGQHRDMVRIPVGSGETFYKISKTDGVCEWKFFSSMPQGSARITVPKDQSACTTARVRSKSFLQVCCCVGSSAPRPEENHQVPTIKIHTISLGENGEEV
Experimental: (§2) Blood cell counts, kinase profiler, safety screen, bacterial cytotoxicity, Ames, micronucleus assays were performed by the company Eurofins (France).

[5] = biological target: AAK1(h) (Homo sapiens, UniProt Q2M2I8); assay: Kinase Profiler; format: biochemical
Chain of AAK1(h) (Q2M2I8 whole entry): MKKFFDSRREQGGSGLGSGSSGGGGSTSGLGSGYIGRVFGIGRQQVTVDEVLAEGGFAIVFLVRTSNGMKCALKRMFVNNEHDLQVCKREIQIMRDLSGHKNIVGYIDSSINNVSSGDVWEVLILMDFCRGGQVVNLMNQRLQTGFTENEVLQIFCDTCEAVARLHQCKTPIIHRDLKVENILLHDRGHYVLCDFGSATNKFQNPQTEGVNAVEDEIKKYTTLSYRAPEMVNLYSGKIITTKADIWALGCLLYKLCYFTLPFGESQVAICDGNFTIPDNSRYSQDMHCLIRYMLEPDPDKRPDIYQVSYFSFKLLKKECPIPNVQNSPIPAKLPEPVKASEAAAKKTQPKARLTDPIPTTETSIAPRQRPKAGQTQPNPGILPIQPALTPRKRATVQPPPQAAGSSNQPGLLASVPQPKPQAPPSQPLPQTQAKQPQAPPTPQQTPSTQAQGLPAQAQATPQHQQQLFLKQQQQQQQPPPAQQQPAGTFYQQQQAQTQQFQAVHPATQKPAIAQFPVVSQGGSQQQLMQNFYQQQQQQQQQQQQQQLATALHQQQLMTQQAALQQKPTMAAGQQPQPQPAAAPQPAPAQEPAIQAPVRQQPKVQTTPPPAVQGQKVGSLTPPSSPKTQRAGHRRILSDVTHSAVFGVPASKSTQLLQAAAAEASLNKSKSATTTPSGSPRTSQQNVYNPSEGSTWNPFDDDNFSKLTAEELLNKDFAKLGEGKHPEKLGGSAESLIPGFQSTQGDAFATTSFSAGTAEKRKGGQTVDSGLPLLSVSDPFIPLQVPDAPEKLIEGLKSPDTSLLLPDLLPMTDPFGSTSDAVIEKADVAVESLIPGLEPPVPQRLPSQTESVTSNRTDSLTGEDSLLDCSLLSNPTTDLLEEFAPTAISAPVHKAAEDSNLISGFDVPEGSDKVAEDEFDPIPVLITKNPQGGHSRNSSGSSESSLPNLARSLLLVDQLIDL
Experimental: as §1

[6] = biological target: DRAK1(h) (Homo sapiens, UniProt Q9UEE5); assay: Kinase Profiler; format: biochemical
Experimental: (§3) Blood cell counts, kinase profiler, safety screen, bacterial cytotoxicity, Ames, micronucleus assays were performed by the company Eurofins (France). The kinase profiler was performed by the company Eurofins (Discovery, Panlab and Cerep).

[7] = biological target: Abl (M351T)(h) (Homo sapiens, UniProt P00519, M351T); assay: Kinase Profiler; format: biochemical
Experimental: as §1

[8] = White blood cell formula; format: in vivo, mouse
Text: Data S6. Formule white blood cell (% of leukocytes) in control and A41-treated mice (25
Control (n=5) A41 (n=5) p value

[9] = biological target: MLCK(h) (Homo sapiens, UniProt Q15746); assay: Kinase Profiler; format: biochemical
Experimental: as §3

[10] = biological target: MRCKβ(h) (Homo sapiens, UniProt Q9Y5S2); assay: Kinase Profiler; format: biochemical
Chain of MRCKβ(h) (Q9Y5S2 whole entry): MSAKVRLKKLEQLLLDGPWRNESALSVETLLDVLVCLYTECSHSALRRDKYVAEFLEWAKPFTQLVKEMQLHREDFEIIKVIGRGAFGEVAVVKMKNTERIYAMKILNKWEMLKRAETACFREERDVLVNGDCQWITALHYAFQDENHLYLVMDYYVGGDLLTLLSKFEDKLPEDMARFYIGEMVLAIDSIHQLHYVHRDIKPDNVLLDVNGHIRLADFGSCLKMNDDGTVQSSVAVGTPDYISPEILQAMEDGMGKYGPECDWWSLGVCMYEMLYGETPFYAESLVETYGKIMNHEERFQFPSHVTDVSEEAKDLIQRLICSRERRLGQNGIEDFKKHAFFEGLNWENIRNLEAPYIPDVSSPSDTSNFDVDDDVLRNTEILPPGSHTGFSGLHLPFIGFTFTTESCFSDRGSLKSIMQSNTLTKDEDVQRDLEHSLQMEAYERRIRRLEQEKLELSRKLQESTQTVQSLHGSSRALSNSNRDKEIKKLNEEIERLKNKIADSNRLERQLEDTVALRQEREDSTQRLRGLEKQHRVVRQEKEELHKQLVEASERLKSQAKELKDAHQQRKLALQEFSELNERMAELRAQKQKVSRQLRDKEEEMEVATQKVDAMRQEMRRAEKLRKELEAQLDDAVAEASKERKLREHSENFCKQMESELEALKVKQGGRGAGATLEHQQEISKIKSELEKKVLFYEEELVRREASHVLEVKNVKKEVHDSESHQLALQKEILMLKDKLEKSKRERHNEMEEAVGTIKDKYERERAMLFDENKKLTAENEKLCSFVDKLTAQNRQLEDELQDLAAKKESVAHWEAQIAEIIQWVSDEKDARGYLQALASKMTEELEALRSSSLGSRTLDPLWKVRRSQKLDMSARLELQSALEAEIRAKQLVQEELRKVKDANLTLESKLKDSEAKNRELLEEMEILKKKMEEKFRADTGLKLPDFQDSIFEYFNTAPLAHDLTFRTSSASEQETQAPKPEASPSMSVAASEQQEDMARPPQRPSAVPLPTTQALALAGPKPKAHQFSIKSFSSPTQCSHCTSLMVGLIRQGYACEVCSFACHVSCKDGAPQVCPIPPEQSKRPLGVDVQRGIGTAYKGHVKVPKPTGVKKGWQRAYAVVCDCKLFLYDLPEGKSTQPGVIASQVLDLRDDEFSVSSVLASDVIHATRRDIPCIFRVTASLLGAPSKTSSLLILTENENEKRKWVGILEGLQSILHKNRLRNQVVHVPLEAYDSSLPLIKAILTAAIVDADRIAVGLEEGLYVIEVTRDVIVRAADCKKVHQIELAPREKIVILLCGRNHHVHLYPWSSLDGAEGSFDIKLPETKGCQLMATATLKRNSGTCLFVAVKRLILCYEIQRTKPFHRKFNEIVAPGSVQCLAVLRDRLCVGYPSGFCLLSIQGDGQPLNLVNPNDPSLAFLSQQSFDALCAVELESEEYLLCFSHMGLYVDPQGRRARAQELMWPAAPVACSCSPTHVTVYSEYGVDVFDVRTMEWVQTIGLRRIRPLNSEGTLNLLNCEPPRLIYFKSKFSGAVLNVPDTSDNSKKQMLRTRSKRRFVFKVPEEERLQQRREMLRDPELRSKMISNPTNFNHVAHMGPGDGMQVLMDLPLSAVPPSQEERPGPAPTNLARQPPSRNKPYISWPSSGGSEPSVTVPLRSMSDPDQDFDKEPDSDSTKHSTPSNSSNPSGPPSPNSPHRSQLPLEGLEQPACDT
Experimental: as §1

[11] = biological target: BIKe(h) (Homo sapiens, UniProt Q9NSY1); assay: Kinase Profiler; format: biochemical
Experimental: as §3

[12] = biological target: Serotonin (5-Hydroxytryptamine) 5-HT2C (Homo sapiens, UniProt P28335); assay: Safety screen; format: binding
Chain of Serotonin (5-Hydroxytryptamine) 5-HT2C (P28335 33-458): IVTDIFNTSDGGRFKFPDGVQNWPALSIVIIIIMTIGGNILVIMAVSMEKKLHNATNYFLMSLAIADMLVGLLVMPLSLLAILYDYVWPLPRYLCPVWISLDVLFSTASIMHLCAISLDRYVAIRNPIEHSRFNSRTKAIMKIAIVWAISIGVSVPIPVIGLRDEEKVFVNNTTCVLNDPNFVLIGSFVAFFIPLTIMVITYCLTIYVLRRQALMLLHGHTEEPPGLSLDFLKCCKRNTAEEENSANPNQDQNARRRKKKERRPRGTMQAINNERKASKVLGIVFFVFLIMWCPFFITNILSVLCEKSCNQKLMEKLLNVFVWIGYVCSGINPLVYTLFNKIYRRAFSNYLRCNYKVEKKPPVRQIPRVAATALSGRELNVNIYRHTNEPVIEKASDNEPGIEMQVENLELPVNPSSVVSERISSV
Experimental: as §2

[13] = biological target: MINK(h) (Homo sapiens, UniProt Q8N4C8); assay: Kinase Profiler; format: biochemical
Chain of MINK(h) (Q8N4C8 whole entry): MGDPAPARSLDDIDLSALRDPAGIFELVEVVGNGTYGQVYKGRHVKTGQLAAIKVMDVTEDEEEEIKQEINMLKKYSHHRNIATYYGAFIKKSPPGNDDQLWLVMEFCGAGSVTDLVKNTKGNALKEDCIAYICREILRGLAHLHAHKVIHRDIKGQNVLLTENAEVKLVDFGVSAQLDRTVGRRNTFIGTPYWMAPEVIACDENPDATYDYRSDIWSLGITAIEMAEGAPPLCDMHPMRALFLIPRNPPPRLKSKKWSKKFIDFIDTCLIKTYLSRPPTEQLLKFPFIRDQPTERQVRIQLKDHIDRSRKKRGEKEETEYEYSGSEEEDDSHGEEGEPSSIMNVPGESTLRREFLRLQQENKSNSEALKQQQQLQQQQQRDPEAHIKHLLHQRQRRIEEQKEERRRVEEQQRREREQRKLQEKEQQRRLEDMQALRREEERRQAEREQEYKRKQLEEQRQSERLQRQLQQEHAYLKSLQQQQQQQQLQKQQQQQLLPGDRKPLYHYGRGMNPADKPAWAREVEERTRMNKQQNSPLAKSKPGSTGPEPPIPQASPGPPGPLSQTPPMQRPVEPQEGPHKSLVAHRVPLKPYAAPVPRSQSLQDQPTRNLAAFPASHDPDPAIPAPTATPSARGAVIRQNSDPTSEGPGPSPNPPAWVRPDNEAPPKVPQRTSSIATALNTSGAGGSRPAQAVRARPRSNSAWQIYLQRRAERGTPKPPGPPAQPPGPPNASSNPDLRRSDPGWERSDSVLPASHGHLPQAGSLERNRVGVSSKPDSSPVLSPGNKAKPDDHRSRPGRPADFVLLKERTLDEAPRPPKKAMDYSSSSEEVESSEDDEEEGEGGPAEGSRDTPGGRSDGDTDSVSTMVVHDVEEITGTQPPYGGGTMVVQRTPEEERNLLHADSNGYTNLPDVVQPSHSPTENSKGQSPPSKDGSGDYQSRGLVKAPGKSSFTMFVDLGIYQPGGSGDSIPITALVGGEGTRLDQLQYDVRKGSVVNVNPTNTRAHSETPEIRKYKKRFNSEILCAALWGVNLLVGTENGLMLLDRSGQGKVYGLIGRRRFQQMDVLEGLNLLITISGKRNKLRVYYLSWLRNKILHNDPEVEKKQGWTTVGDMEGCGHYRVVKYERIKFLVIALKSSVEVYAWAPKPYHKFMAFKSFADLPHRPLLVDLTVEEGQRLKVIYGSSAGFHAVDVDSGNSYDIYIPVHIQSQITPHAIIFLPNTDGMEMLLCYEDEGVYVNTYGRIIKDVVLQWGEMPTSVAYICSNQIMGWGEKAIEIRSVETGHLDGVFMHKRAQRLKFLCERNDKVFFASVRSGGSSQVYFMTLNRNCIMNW
Experimental: as §1

COc1ccc(OC)c(NS(=O)(=O)c2ccc(NC(=O)CCSc3ccc(C)cc3)cc2)c1 [Compound A41]
Activity(%) [1]: 107% | Activity(%) [2]: 108% | activation of RHOA induced by p115RhoGEF DH-PH [3]: did not change the activation | % inh. [4]: 34% | Activity(%) [5]: 105% | Activity(%) [6]: 101% | Activity(%) [7]: 111% | B cells, Mean (SD) ([8]; 25 mg/kg/d, n=5): 11.62 (1.58) % of leukocytes | Macrophages, Mean (SD) ([8]; 25 mg/kg/d, n=5): 2.46 (2.34) % of leukocytes | Monocytes, Mean (SD) ([8]; 25 mg/kg/d, n=5): 0.86 (0.57) % of leukocytes | NK cells, Mean (SD) ([8]; 25 mg/kg/d, n=5): 0.40 (0.22) % of leukocytes | Neutrophiles, Mean (SD) ([8]; 25 mg/kg/d, n=5): 4.19 (6.24) % of leukocytes | T cells, Mean (SD) ([8]; 25 mg/kg/d, n=5): 52.20 (2.11) % of leukocytes | white cell blood counts ([8]; chronic A41 treatment, immunocompetent mice): not accompanied by changes in white cell blood counts | Activity(%) [9]: 103% | Activity(%) [10]: 102% | Activity(%) [11]: 112% | % inh. [12]: 56% | Activity(%) [13]: 114%
